Measurements as given in ChEMBL document CHEMBL5233247, “Recent advances in DNA gyrase-targeted antimicrobial agents” (Eur J Med Chem, 2020).
Values after ≈ are worked out from the molar mass of the structure shown. Values joined by “and” are separate entries in the source; they are usually repeats but may differ in a detail not shown here. Identical values can stand only once.

What was measured:
[1] = tested on: Mycobacterium tuberculosis; assay: Antimycobacterial activity against Mycobacterium tuberculosis incubated for 7 days by MABA assay; assay type: functional; settings: 168 h, time 7 day
[2] = target: T1, DNA gyrase subunit A/DNA gyrase subunit B (Mycobacterium tuberculosis (strain ATCC 25618 / H37Rv), UniProt P9WG45+P9WG47); assay: Inhibition of Mycobacterium tuberculosis (MTB) DNA gyrase using pBR322 DNA by supercoiling assay; assay type: protein-complex assay
T1 sequence (P9WG45 whole entry): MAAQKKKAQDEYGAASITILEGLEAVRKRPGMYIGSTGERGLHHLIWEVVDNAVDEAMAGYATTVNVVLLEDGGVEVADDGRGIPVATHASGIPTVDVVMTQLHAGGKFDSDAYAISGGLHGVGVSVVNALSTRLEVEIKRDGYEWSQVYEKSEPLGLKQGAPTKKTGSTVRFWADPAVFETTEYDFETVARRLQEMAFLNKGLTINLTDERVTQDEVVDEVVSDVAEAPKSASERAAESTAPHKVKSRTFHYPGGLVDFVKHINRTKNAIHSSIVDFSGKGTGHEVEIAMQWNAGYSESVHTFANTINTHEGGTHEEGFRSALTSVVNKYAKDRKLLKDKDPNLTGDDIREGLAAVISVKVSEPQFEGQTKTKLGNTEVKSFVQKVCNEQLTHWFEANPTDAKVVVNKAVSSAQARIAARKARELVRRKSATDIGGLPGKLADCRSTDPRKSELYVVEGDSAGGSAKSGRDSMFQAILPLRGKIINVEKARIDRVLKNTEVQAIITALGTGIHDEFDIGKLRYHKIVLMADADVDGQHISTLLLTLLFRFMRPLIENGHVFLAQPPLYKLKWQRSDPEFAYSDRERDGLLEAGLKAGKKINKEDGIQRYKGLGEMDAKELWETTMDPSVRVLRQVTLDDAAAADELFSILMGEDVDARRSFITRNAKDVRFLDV
T1 sequence (P9WG47 whole entry): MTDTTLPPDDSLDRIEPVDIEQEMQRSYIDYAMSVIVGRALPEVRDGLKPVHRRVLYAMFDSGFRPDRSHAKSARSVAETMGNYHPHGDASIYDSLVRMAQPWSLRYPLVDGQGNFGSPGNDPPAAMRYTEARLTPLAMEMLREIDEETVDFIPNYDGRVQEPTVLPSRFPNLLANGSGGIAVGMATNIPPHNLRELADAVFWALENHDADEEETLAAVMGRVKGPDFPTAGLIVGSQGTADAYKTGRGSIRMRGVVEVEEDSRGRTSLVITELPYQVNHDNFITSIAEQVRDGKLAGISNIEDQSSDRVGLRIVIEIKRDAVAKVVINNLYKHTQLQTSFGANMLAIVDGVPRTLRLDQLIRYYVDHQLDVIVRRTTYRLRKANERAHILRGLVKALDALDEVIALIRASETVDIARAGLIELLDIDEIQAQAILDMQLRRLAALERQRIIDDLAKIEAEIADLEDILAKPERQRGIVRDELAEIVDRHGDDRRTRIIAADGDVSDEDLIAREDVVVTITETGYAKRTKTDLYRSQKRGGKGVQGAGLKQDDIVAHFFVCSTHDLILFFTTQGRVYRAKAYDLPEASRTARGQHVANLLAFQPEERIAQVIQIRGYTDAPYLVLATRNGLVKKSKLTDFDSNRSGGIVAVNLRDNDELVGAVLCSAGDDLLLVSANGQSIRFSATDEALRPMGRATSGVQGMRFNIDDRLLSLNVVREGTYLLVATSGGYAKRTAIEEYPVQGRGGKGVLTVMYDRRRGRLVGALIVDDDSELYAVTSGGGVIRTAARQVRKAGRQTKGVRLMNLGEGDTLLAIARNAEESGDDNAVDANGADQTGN

Listeria monocytogenes = assay: Antimicrobial activity against Listeria monocytogenes assessed as inhibition of visible growth incubated for 24 hrs by agar-dilution method; assay type: functional
[3] = tested on: Salmonella enterica subsp. enterica serovar Gallinarum; assay: Antimicrobial activity against Salmonella gallinarum assessed as inhibition of visible growth incubated for 24 hrs by agar-dilution method; assay type: functional
Staphylococcus aureus [4] = assay: Antimicrobial activity against Staphylococcus aureus assessed as inhibition of visible growth incubated for 24 hrs by agar-dilution method; assay type: functional
Escherichia coli [5] = assay: Antimicrobial activity against Escherichia coli assessed as inhibition of visible growth incubated for 24 hrs by agar-dilution method; assay type: functional
Staphylococcus aureus [6] = assay: Antibacterial activity against healthcare-acquired methicillin-resistant Staphylococcus aureus; assay type: functional
Staphylococcus aureus [7] = assay: Antibacterial activity against community-acquired methicillin-resistant Staphylococcus aureus; assay type: functional
Staphylococcus aureus [8] = assay: Antibacterial activity against methicillin-sensitive Staphylococcus aureus; assay type: functional, organism-based
Streptococcus pneumoniae = assay: Antibacterial activity against Streptococcus pneumoniae; assay type: functional
Acinetobacter baumannii = assay: Antibacterial activity against Acinetobacter baumannii; assay type: functional
Enterococcus faecalis = assay: Antibacterial activity against Enterococcus faecalis; assay type: functional
[9] = target: T1, DNA gyrase subunit A/DNA gyrase subunit B; assay: Inhibition of Mycobacterium tuberculosis DNA gyrase; assay type: protein-complex assay
Staphylococcus aureus [10] = assay: Antibacterial activity against methicillin-resistant Staphylococcus aureus; assay type: functional, organism-based
DNA gyrase [11] = target: T2, DNA gyrase (Staphylococcus aureus, UniProt P0A0K8+P20831); assay: Inhibition of Staphylococcus aureus DNA gyrase; assay type: protein-complex assay
T2 sequence (P0A0K8 whole entry): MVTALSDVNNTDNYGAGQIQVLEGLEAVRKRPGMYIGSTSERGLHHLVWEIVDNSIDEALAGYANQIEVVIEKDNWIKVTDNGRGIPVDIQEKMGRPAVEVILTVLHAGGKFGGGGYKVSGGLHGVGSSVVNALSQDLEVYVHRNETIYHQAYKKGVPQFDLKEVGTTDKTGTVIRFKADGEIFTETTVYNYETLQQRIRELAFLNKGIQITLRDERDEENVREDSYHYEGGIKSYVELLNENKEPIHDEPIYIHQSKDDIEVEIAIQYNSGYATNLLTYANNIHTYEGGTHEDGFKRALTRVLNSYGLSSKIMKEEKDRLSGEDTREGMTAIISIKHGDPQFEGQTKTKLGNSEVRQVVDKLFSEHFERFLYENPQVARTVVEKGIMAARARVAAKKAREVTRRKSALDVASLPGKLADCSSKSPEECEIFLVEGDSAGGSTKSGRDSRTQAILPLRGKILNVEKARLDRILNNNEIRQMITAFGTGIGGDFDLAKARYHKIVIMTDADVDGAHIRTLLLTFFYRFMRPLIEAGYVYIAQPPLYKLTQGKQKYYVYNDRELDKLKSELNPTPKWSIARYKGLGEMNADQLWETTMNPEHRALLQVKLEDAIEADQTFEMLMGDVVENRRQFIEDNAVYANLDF
T2 sequence (P20831 whole entry): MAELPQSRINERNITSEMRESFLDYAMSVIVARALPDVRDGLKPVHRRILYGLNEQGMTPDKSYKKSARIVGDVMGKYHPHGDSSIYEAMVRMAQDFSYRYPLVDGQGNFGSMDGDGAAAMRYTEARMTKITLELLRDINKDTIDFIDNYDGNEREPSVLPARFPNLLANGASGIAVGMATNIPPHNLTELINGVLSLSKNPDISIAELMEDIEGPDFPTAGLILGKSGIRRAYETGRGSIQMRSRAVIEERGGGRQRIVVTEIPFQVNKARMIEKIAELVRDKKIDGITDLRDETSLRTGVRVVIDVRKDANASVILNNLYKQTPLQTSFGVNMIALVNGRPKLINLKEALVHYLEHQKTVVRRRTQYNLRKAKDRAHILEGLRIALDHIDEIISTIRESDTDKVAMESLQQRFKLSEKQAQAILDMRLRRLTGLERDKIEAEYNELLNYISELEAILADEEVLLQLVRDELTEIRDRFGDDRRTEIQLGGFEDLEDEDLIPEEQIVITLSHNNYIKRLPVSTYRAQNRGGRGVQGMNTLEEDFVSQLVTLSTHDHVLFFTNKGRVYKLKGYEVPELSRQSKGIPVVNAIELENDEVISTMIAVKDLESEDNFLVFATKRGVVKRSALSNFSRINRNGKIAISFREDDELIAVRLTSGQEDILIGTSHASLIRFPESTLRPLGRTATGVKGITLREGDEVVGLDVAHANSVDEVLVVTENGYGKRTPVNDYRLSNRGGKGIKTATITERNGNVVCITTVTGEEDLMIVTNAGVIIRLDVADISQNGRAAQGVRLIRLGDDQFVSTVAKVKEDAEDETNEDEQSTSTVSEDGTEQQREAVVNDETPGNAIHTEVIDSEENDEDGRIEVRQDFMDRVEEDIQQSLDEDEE

[12] = tested on: Mycobacterium tuberculosis; assay: Anti-tubercular activity against Mycobacterium tuberculosis H37Rv strain; assay type: functional
Salmonella typhimurium = assay: Antibacterial activity against Salmonella typhimurium assessed as inhibition was bacterial growth by broth micro dilution method; assay type: functional, Salmonella enterica subsp. enterica serovar Typhimurium; settings: Salmonella enterica
Salmonella enterica = assay: Antibacterial activity against Salmonella enterica assessed as inhibition was bacterial growth by broth micro dilution method; assay type: functional
[13] = Inhibition of Salmonella typhimurium DNA gyrase; design: species or system Salmonella enterica subsp. enterica serovar Typhimurium
DNA gyrase [14] = target: DNA gyrase (Escherichia coli, UniProt P0AES4+P0AES6); assay: Inhibition of Escherichia coli DNA gyrase; assay type: protein-complex assay
DNA gyrase [15] = target: T2, DNA gyrase; assay: Inhibition of Staphylococcus aureus DNA gyrase assessed as relaxation of pBR322 DNA by supercoiling assay; assay type: protein-complex assay
Staphylococcus aureus [16] = assay: Antibacterial activity against Staphylococcus aureus; assay type: functional
Bacillus cereus = assay: Antibacterial activity against Bacillus cereus; assay type: functional
[17] = tested on: Mycolicibacterium smegmatis; assay: Antibacterial activity against Mycobacterium smegmatis; assay type: functional
Pseudomonas aeruginosa [18] = assay: Antibacterial activity against Pseudomonas aeruginosa; assay type: functional
Klebsiella pneumoniae = assay: Antibacterial activity against Klebsiella pneumoniae; assay type: functional
Escherichia coli [19] = assay: Antibacterial activity against Escherichia coli; assay type: functional
Staphylococcus aureus [20] = assay: Antimicrobial activity against Staphylococcus aureus MTCC 96 assessed as zone of inhibition incubated for 24 hrs by agar well diffusion method; assay type: functional
Streptococcus pyogenes = assay: Antimicrobial activity against […] MTCC 442 assessed as zone of inhibition incubated for 24 hrs by agar well diffusion method; assay type: functional
Escherichia coli [21] = assay: Antimicrobial activity against Escherichia coli MTCC 443 assessed as zone of inhibition incubated for 24 hrs by agar well diffusion method; assay type: functional
Pseudomonas aeruginosa [22] = assay: Antimicrobial activity against Pseudomonas aeruginosa MTCC 424 assessed as zone of inhibition incubated for 24 hrs by agar well diffusion method; assay type: functional
Mycolicibacterium phlei = assay: Antibacterial activity against Mycobacterium phlei DSM 750 by microdilution assay; assay type: functional
Bacillus subtilis = assay: Antibacterial activity against Bacillus subtilis DSM 10 by microdilution assay; assay type: functional
[23] = tested on: Mycobacterium tuberculosis; assay: Antitubercular activity against Mycobacterium tuberculosis H37Rv MTCC-200; assay type: functional
[24] = tested on: Aggregatibacter actinomycetemcomitans; assay: Antibacterial activity against Aggregatibacter actinomycetemcomitans; assay type: functional

O=c1nc(N2CCN(C(=S)Nc3ccccc3)CC2)sc2ccc([N+](=O)[O-])cc12
MIC [1]: 4.41 µM (≈ 1.89 µg/mL)
IC50 [2]: 0.51 µM

Cc1ccc(-n2nc(C)c(C(=O)Oc3ncn(-c4ccccc4)n3)c2Cl)cc1
MIC (Listeria monocytogenes): 0.5 µg/mL (≈ 1.27 µM)
MIC [3]: 0.5 µg/mL (≈ 1.27 µM)
MIC (Staphylococcus aureus [4]): 0.5 µg/mL (≈ 1.27 µM)
MIC (Escherichia coli [5]): 0.5 µg/mL (≈ 1.27 µM)

COc1c(N2CC3CCCCC3C2)c(F)cc2c(=O)c(C(=O)N3CCSC3)cn(C3CC3)c12 (configuration not stated)
MIC (Staphylococcus aureus [6]): 0.79 µg/mL (≈ 1.68 µM)
MIC (Staphylococcus aureus [7]): 25 µg/mL (≈ 53 µM)
MIC (Staphylococcus aureus [8]): 0.79 µg/mL (≈ 1.68 µM)
MIC (Streptococcus pneumoniae): 50 µg/mL (≈ 106 µM)
MIC (Acinetobacter baumannii): 101 µg/mL (≈ 214 µM)
MIC (Enterococcus faecalis): 12.6 µg/mL (≈ 26.7 µM)
IC50 [9]: 105 µM

CCn1cc(C(=O)N[C@H](CCCNC(=N)N)C(=O)N[C@@H](CC2CCCCC2)C(=O)N[C@H](CCCNC(=N)N)C(=O)N[C@@H](CC2CCCCC2)C(=O)N[C@H](CCCNC(=N)N)C(=O)N[C@@H](CC2CCCCC2)C(N)=O)c(=O)c2ccc(C)nc21
IC50 (Staphylococcus aureus [8]): 18 µg/mL (≈ 15.5 µM)
IC50 (Staphylococcus aureus [10]): 1 µg/mL (≈ 0.862 µM)
IC50 (DNA gyrase [11]): 25 µM

COc1cc(/C=N/Nc2nc(-c3ccc(Cl)cc3)cs2)ccc1Oc1ccnc2cc(Cl)ccc12
MIC [12]: 3.12 µM (≈ 1.63 µg/mL)

COc1c(N2CC3(CC3)[C@@](C)(N)C2)c(F)cc2c(=O)c(C(=O)O)cn([C@@H]3C[C@@H]3F)c12
MIC (Salmonella typhimurium): 0.13 µg/mL (≈ 0.31 µM)
MIC (Salmonella enterica): 0.06 µg/mL (≈ 0.143 µM)
IC50 [13]: 0.32 µg/mL and 0.25 µg/mL

O=C(O)c1ccc(CNC(=O)[C@H](Cc2ccc(O)cc2)NC(=O)c2cc(Br)c(Br)[nH]2)cc1
IC50 (DNA gyrase [14]): 0.619 µM

COc1cc2c(cc1OCCCC(=O)Nc1cc(C(=O)Nc3ccc4occc4c3)n(C)c1)N=C[C@@H]1CCCN1C2=O
IC50 (DNA gyrase [15]): 2.9 µM

O=C(O)CNC(=O)Cc1csc(NC(=O)c2cc(Br)c(Br)[nH]2)n1
IC50 (DNA gyrase [14]): 15.9 µM

O=C(O)C(=O)Nc1nc2ccc(NC(=O)c3cc(Br)c(Br)[nH]3)cc2s1
IC50 (DNA gyrase [14]): 0.058 µM

CCn1cc(-c2nnc(Nc3ccc(C)cc3)o2)c(=O)c2cc(Br)c(C)nc21
MIC (Staphylococcus aureus [16]): 5.5 µg/mL (≈ 12.5 µM)
MIC (Bacillus cereus): 5.5 µg/mL (≈ 12.5 µM)
MIC [17]: 5.5 µg/mL (≈ 12.5 µM)
MIC (Pseudomonas aeruginosa [18]): 5.5 µg/mL (≈ 12.5 µM)
MIC (Klebsiella pneumoniae): 5.5 µg/mL (≈ 12.5 µM)
MIC (Escherichia coli [19]): 5.5 µg/mL (≈ 12.5 µM)

COc1ccc2ccc(F)c(CC(=O)N/N=C/c3ccc(F)cc3F)c2n1
inhibition zone (IZ) (Staphylococcus aureus [20]): 18 mm
inhibition zone (IZ) (Streptococcus pyogenes): 20 mm
inhibition zone (IZ) (Escherichia coli [21]): 21 mm
IC50 (DNA gyrase [11]): 375 µM
inhibition zone (IZ) (Pseudomonas aeruginosa [22]): 20 mm

O=C(O)c1cn(C2CC2)c2cc(N3CCNCC3)c(F)cc2c1=O [CIPROFLOXACIN]
MIC [12]: 12.5 µM (≈ 4.14 µg/mL)
MIC (Salmonella typhimurium): 0.016 µg/mL (≈ 0.0483 µM)
MIC (Staphylococcus aureus [6]): 0.2 µg/mL (≈ 0.604 µM)
MIC (Listeria monocytogenes): 0.125 µg/mL (≈ 0.377 µM)
MIC (Staphylococcus aureus [7]): 6.3 µg/mL (≈ 19 µM)
MIC (Salmonella enterica): 0.016 µg/mL (≈ 0.0483 µM)
MIC (Staphylococcus aureus [8]): 0.098 µg/mL (≈ 0.296 µM)
MIC (Streptococcus pneumoniae): 0.39 µg/mL (≈ 1.18 µM)
MIC [3]: 0.125 µg/mL (≈ 0.377 µM)
MIC (Acinetobacter baumannii): 0.78 µg/mL (≈ 2.35 µM)
MIC (Enterococcus faecalis): 0.79 µg/mL (≈ 2.38 µM)
IC50 [13]: 0.25 µg/mL (≈ 0.754 µM)

O=C1COc2cc(F)c(CNC3CCN(CCn4c(=O)c5nocc5c5ccc(F)cc54)CC3)nc2N1
IC50 (DNA gyrase [14]): 0.411 µM

COc1ccc2c3conc3c(=O)n(CCN3CCC(NCc4nc5c(cc4F)OCC(=O)N5)CC3)c2c1
IC50 (DNA gyrase [14]): 0.402 µM

COc1cc2c(cc1OCCCC(=O)Nc1cc(C(=O)Nc3ccc4sccc4c3)n(C)c1)N=C[C@@H]1CCCN1C2=O
IC50 (DNA gyrase [15]): 3.89 µM

COc1c(NC(=O)c2ccc(NC(=O)[C@@H](NC(=O)c3ccc(NC(=O)/C(C)=C/c4ccc(O)cc4)cc3)C(C)O)c(OC)c2O)ccc(C(=O)O)c1O (some centres not stated)
MIC (Mycolicibacterium phlei): 2 µM (≈ 1.46 µg/mL)
MIC (Bacillus subtilis): 0.5 µM (≈ 0.364 µg/mL)

COc1ccc(C(=O)Oc2ccc(/C=C3\C(=O)Nc4ccccc43)cc2)cc1OC
MIC [23]: 31 µg/mL (≈ 77.2 µM)

COc1cc(C(=O)NCC(=O)O)ccc1NC(=O)c1cc(Cl)c(Cl)[nH]1
IC50 (DNA gyrase [14]): 0.12 µM

COc1ccc2c3conc3c(=O)n(CCN3CCC(NCc4ccc5c(n4)NC(=O)CO5)CC3)c2c1
IC50 (DNA gyrase [14]): 0.416 µM

CCn1cc(-c2nc(NC(=O)c3ccccc3)n[nH]2)c(=O)c2cc(Br)c(C)nc21
MIC [24]: 4.25 µM (≈ 1.93 µg/mL)

COc1c(N2CCCCC2)c(F)cc2c(=O)c(C(=O)N3CCSC3)cn(C3CC3)c12
MIC (Staphylococcus aureus [6]): 0.62 µg/mL (≈ 1.44 µM)
MIC (Staphylococcus aureus [7]): 25 µg/mL (≈ 57.9 µM)
MIC (Staphylococcus aureus [8]): 0.39 µg/mL (≈ 0.904 µM)
MIC (Streptococcus pneumoniae): 25 µg/mL (≈ 57.9 µM)
MIC (Acinetobacter baumannii): 12.6 µg/mL (≈ 29.2 µM)
MIC (Enterococcus faecalis): 12.6 µg/mL (≈ 29.2 µM)
IC50 [9]: 105 µM

CCn1cc(C(=O)N[C@@H](CC2CCCCC2)C(=O)N[C@H](CCCNC(=N)N)C(=O)N[C@@H](CC2CCCCC2)C(=O)N[C@H](CCCNC(=N)N)C(=O)N[C@@H](CC2CCCCC2)C(=O)N[C@H](CCCNC(=N)N)C(=O)N[C@@H](CC2CCCCC2)C(N)=O)c(=O)c2ccc(C)nc21
IC50 (Staphylococcus aureus [8]): 13 µg/mL (≈ 9.9 µM)
IC50 (Staphylococcus aureus [10]): 13 µg/mL (≈ 9.9 µM)
IC50 (DNA gyrase [11]): 25 µM

CCNC(=O)Nc1nc2ccc(NC(=O)Cc3csc(NC(C)=O)n3)cc2s1
IC50 (DNA gyrase [14]): 5.6 µM
